Values of other authors, collected in patent publication US11065266B2, “Method of treating melanoma using an inhibitor of an atypical protein kinase C” (UNIVERSITY OF SOUTH FLORIDA, priority 2016, dated 2021).

Molecular target: T1, PKC-ι (Homo sapiens, UniProt P41743)
T1 sequence (P41743 1-596): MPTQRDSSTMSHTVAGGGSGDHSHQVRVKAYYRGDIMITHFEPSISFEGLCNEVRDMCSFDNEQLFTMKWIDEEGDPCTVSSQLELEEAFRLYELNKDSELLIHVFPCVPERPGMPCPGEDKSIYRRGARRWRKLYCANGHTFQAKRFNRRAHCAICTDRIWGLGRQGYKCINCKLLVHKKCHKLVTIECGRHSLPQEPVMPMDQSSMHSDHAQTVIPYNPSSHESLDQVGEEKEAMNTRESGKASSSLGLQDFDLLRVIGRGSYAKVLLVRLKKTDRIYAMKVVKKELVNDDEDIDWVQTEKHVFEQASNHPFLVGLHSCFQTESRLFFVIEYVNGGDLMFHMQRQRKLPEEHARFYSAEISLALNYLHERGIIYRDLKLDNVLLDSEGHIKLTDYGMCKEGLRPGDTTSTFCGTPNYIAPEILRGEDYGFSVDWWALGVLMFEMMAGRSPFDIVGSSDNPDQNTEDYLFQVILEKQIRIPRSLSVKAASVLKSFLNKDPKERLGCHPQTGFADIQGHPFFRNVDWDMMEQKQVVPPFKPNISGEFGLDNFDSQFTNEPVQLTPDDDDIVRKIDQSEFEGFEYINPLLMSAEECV
Details: cited from earlier work

SMILES | binding to PKC-ι
OC[C@H]1O[C@H]([S-])[C@H](O)[C@@H](O)[C@@H]1O.[Au+] [aurothioglucose] | low micromolar range
O=C([O-])CC([S-])C(=O)[O-].[Au+].[Na+].[Na+] (centres unmarked) [Sodium aurothiomalate] | low micromolar range
